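96-well plates; 48 h exposure; 5 concentrations. Endpoints by linear interpolation between flanking doses. Not reached: highest tested concentration assigned. GI50 = concentration required for 50% inhibition of growth. TGI marks complete inhibition of growth.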
Experiments:
Experiment in all cases: NCI anticancer screen, dose series, 48 h
RPMI-8226 leukemia = system: RPMI-8226 leukemia
MDA-MB-435 = system: MDA-MB-435
MOLT-4 leukemia = system: MOLT-4 leukemia
SK-MEL-28 melanoma = system: SK-MEL-28 melanoma
HOP-62 NSCLC = system: HOP-62 NSCLC
SK-MEL-5 melanoma = system: SK-MEL-5 melanoma
U251 CNS = system: U251 CNS
M14 melanoma = system: M14 melanoma
CAKI-1 renal = system: CAKI-1 renal
SK-OV-3 ovarian = system: SK-OV-3 ovarian
TK-10 renal = system: TK-10 renal
A498 renal = system: A498 renal
OVCAR-8 ovarian = system: OVCAR-8 ovarian
BT-549 breast = system: BT-549 breast
PC-3 prostate = system: PC-3 prostate
HL-60(TB) leukemia = system: HL-60(TB) leukemia
SF-268 CNS = system: SF-268 CNS
HCC-2998 colon = system: HCC-2998 colon
CCRF-CEM leukemia = system: CCRF-CEM leukemia
NCI-H23 lung = system: NCI-H23 lung
COLO 205 colon = system: COLO 205 colon
NCI-H522 lung = system: NCI-H522 lung
SF-295 CNS = system: SF-295 CNS
SN12C renal = system: SN12C renal
KM12 colon = system: KM12 colon
K-562 leukemia = system: K-562 leukemia
OVCAR-4 ovarian = system: OVCAR-4 ovarian
SNB-19 CNS = system: SNB-19 CNS
HT29 colon = system: HT29 colon
MALME-3M melanoma = system: MALME-3M melanoma
UO-31 renal = system: UO-31 renal
NCI-H460 lung = system: NCI-H460 lung
SW-620 colon = system: SW-620 colon
EKVX NSCLC = system: EKVX NSCLC
786-0 renal = system: 786-0 renal
LOX IMVI melanoma = system: LOX IMVI melanoma
IGROV1 ovarian = system: IGROV1 ovarian
SF-539 CNS = system: SF-539 CNS
RXF 393 renal = system: RXF 393 renal
UACC-62 melanoma = system: UACC-62 melanoma
MCF7 breast = system: MCF7 breast
HS 578T breast = system: HS 578T breast
T-47D breast = system: T-47D breast
OVCAR-5 ovarian = system: OVCAR-5 ovarian
A549 NSCLC = system: A549 NSCLC
ACHN renal = system: ACHN renal
HOP-92 NSCLC = system: HOP-92 NSCLC
HCT-15 colon = system: HCT-15 colon
NCI-H226 lung = system: NCI-H226 lung
SR leukemia = system: SR leukemia
UACC-257 melanoma = system: UACC-257 melanoma
SNB-75 CNS = system: SNB-75 CNS
HCT-116 colon = system: HCT-116 colon
OVCAR-3 ovarian = system: OVCAR-3 ovarian
SK-MEL-2 melanoma = system: SK-MEL-2 melanoma
NCI/ADR-RES ovarian = system: NCI/ADR-RES ovarian
DU-145 prostate = system: DU-145 prostate
MDA-MB-231 breast = system: MDA-MB-231 breast

`O=C1c2c(c3c4cc(O)ccc4oc3c3[nH]c4ccccc4c23)C(=O)N1O` showed a GI50 (RPMI-8226 leukemia) of 1.41 µM, a TGI (RPMI-8226 leukemia) of 8.01 µM and a GI50 (MDA-MB-435) of 0.627 µM. It also gave a TGI (MDA-MB-435) of 2.75 µM, a GI50 (MOLT-4 leukemia) of 0.32 µM and a TGI (MOLT-4 leukemia) of 1.34 µM. It also gave a GI50 (SK-MEL-28 melanoma) of 1.15 µM, a TGI (SK-MEL-28 melanoma) of 5.46 µM and a GI50 (HOP-62 NSCLC) of 0.721 µM. The TGI (HOP-62 NSCLC) was 4.47 µM, the GI50 (SK-MEL-5 melanoma) was 0.275 µM and the TGI (SK-MEL-5 melanoma) was 0.815 µM. For the same compound, the GI50 (U251 CNS) was 0.452 µM, the TGI (U251 CNS) was 12.7 µM and the GI50 (M14 melanoma) was 0.371 µM. The TGI (M14 melanoma) was 3.87 µM, the GI50 (CAKI-1 renal) was 0.787 µM and the TGI (CAKI-1 renal) was 3.74 µM. It also gave a GI50 (SK-OV-3 ovarian) of 0.941 µM, a TGI (SK-OV-3 ovarian) of 3.3 µM and a GI50 (TK-10 renal) of 5.18 µM. The TGI (TK-10 renal) was 15.4 µM, the GI50 (A498 renal) was 3.16 µM and the TGI (A498 renal) was 9.48 µM. For the same compound, the GI50 (OVCAR-8 ovarian) was 0.82 µM, the TGI (OVCAR-8 ovarian) was 10.7 µM and the GI50 (BT-549 breast) was 0.423 µM. The TGI (BT-549 breast) was 1.49 µM, the GI50 (PC-3 prostate) was 0.812 µM and the TGI (PC-3 prostate) was 5.55 µM. It also gave a GI50 (HL-60(TB) leukemia) of 0.46 µM, a TGI (HL-60(TB) leukemia) of 7.83 µM and a GI50 (SF-268 CNS) of 0.553 µM. It also gave a TGI (SF-268 CNS) of 4.27 µM, a GI50 (HCC-2998 colon) of 1.35 µM and a TGI (HCC-2998 colon) of 3.59 µM. For the same compound, the GI50 (CCRF-CEM leukemia) was 0.277 µM, the TGI (CCRF-CEM leukemia) was 9.86 µM and the GI50 (NCI-H23 lung) was 0.411 µM. The TGI (NCI-H23 lung) was 2.25 µM, the GI50 (COLO 205 colon) was 1.8 µM and the TGI (COLO 205 colon) was 9.36 µM. For the same compound, the GI50 (NCI-H522 lung) was 0.22 µM, the TGI (NCI-H522 lung) was 1.22 µM and the GI50 (SF-295 CNS) was 0.488 µM. For the same compound, the TGI (SF-295 CNS) was 5.58 µM, the GI50 (SN12C renal) was 0.468 µM and the TGI (SN12C renal) was 5.79 µM. It also gave a GI50 (KM12 colon) of 1.91 µM, a TGI (KM12 colon) of 5.78 µM and a GI50 (K-562 leukemia) of 0.428 µM. The TGI (K-562 leukemia) was 13.9 µM, the GI50 (OVCAR-4 ovarian) was 2.17 µM and the TGI (OVCAR-4 ovarian) was 10.7 µM. The GI50 (SNB-19 CNS) was 0.542 µM, the TGI (SNB-19 CNS) was 5.53 µM and the GI50 (HT29 colon) was 1.6 µM. For the same compound, the TGI (HT29 colon) was 3.8 µM, the GI50 (MALME-3M melanoma) was 0.851 µM and the TGI (MALME-3M melanoma) was 5.08 µM. It also gave a GI50 (UO-31 renal) of 0.342 µM, a TGI (UO-31 renal) of 1.43 µM and a GI50 (NCI-H460 lung) of 0.414 µM. For the same compound, the TGI (NCI-H460 lung) was 2.89 µM, the GI50 (SW-620 colon) was 0.549 µM and the TGI (SW-620 colon) was 7.1 µM. The GI50 (EKVX NSCLC) was 2.08 µM, the TGI (EKVX NSCLC) was 8.04 µM and the GI50 (786-0 renal) was 0.752 µM. The TGI (786-0 renal) was 6.62 µM, the GI50 (LOX IMVI melanoma) was 0.258 µM and the TGI (LOX IMVI melanoma) was 1.02 µM. The GI50 (IGROV1 ovarian) was 0.724 µM, the TGI (IGROV1 ovarian) was 2.93 µM and the GI50 (SF-539 CNS) was 0.315 µM. It also gave a TGI (SF-539 CNS) of 1.26 µM, a GI50 (RXF 393 renal) of 0.872 µM and a TGI (RXF 393 renal) of 2.26 µM. The GI50 (UACC-62 melanoma) was 0.703 µM, the TGI (UACC-62 melanoma) was 2.4 µM and the GI50 (MCF7 breast) was 0.323 µM. The TGI (MCF7 breast) was 5.21 µM, the GI50 (HS 578T breast) was 1.46 µM and the TGI (HS 578T breast) was 5.76 µM. The GI50 (T-47D breast) was 0.461 µM, the TGI (T-47D breast) was 4.53 µM and the GI50 (OVCAR-5 ovarian) was 2.77 µM. It also gave a TGI (OVCAR-5 ovarian) of 9.3 µM, a GI50 (A549 NSCLC) of 3.29 µM and a TGI (A549 NSCLC) of 18.3 µM. It also gave a GI50 (ACHN renal) of 0.36 µM, a TGI (ACHN renal) of 1.76 µM and a GI50 (HOP-92 NSCLC) of 1.14 µM. For the same compound, the TGI (HOP-92 NSCLC) was 4.6 µM, the GI50 (HCT-15 colon) was 1.45 µM and the TGI (HCT-15 colon) was 7.19 µM. It also gave a GI50 (NCI-H226 lung) of 1.32 µM, a TGI (NCI-H226 lung) of 5.01 µM and a GI50 (SR leukemia) of 0.274 µM. The TGI (SR leukemia) was 1.93 µM, the GI50 (UACC-257 melanoma) was 1.99 µM and the TGI (UACC-257 melanoma) was 6.32 µM. It also gave a GI50 (SNB-75 CNS) of 1.02 µM, a TGI (SNB-75 CNS) of 2.24 µM and a GI50 (HCT-116 colon) of 1.09 µM. It also gave a TGI (HCT-116 colon) of 2.81 µM, a GI50 (OVCAR-3 ovarian) of 1.57 µM and a TGI (OVCAR-3 ovarian) of 5.23 µM. For the same compound, the GI50 (SK-MEL-2 melanoma) was 1.38 µM, the TGI (SK-MEL-2 melanoma) was 3.08 µM and the GI50 (NCI/ADR-RES ovarian) was 1.57 µM. The TGI (NCI/ADR-RES ovarian) was 29.7 µM, the GI50 (DU-145 prostate) was 0.626 µM and the TGI (DU-145 prostate) was 11.2 µM. The GI50 (MDA-MB-231 breast) was 1.18 µM and the TGI (MDA-MB-231 breast) was 4.71 µM.

From PubChem BioAssay (NCI)
